Each structure is given as a SMILES string. Where a name gives a salt, the structure may show the parent alone.

The assay addresses T1, R928C mutant KCNT1 channels (Homo sapiens, UniProt Q5JUK3, R909C).
T1 construct: YFP-6His; expressed in transfected cells; host or cells: HEK293T
T1 sequence (Q5JUK3 1-1235 isoform Q5JUK3-3 R928C): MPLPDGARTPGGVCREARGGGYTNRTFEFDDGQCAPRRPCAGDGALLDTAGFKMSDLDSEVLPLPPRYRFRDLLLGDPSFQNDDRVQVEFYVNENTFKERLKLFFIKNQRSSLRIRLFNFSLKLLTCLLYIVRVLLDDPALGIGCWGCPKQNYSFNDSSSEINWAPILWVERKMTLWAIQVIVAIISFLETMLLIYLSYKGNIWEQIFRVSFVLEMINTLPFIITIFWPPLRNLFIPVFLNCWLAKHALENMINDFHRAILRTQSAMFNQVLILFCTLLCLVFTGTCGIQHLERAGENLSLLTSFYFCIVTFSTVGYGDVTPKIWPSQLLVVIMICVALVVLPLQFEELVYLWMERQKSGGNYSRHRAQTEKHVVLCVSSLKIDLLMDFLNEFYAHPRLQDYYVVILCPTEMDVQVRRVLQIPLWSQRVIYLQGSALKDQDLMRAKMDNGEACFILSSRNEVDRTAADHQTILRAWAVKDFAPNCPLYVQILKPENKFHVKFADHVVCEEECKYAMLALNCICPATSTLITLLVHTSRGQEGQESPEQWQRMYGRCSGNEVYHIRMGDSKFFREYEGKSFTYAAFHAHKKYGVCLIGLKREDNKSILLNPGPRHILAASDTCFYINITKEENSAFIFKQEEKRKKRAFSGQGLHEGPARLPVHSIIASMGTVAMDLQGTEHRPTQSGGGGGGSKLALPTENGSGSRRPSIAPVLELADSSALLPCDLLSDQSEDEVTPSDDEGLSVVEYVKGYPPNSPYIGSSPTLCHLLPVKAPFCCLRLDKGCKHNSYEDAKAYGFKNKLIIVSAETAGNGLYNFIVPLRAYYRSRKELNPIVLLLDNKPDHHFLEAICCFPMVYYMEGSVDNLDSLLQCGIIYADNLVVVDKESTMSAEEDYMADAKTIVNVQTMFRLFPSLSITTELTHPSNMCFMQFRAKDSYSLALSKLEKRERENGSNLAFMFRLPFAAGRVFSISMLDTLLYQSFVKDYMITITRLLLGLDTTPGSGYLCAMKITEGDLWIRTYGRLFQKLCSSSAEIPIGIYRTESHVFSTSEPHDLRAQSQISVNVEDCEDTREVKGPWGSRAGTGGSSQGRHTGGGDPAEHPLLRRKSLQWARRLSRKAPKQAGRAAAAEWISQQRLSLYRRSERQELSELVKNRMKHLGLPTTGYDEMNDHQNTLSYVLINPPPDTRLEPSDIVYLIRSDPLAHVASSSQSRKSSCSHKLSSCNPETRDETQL
Description: Inside-out patch clamp of HEK293T cells expressing R928C KCNT1. Type of assay: cell-based. The note with it: inside-out patches, mean ± SEM. On the procedure: The CHO cells were cultured in Dulbecco's modified Eagle's Medium (ThermoFisher, UK) supplemented with 10% (v/v) fetal bovine serum, 50 U/ml penicillin and 0.05 mg/ml streptomycin, and incubated at 37°C in 5% CO2 atmosphere. For whole cell recording of WT/Y796H KCNT1, CHO cells were transiently co‐transfected with concatemeric WT/Y796H and EYFP, as described previously.[29] For electrophysiological experiments, cells were plated onto borosilicate glass cover slips and used 2 to 4 days later. Human embryonic kidney 293T cells (HEK293T) were cultured in the same manner, but with medium supplemented with 2 mM L‐glutamine, and 1% (v/v) nonessential amino acids. For excised inside‐out recording of homomeric WT or mutant YFP‐tagged KCNT1, HEK293T cells plated on glass cover slips were transfected using Attractene Transfection Reagent (Qiagen, Germany) according to the manufacturer's instructions and used 2 to 3 days later.
Inside‐out patch clamp recordings were made at room temperature (23°C) from transiently transfected HEK293T cells, as described previously.[11] The pipette solution contained, in mM, 140 NaCl, 4 KCl, 2 CaCl2, 2 MgCl2, and 10 HEPES adjusted to pH 7.4 with NaOH. […] KCNT1 currents were recorded using 2 voltage protocols, depending on the number of active channels in the patch before drug application. Macroscopic currents (number of active channels > 15) were recorded in response to 100 ms voltage ramps between −120 and 120 mV applied every 2 seconds from a holding potential of −78 mV. […] With a lower number of active channels in the patch (3–15), current traces were recorded in response to 15‐second voltage steps to −20, 0, and 20 mV from a holding potential of −78 mV. Currents recorded at each voltage and each drug concentration were averaged over the duration of the trace and normalized to the average amplitudes of the corresponding current traces in drug‐free solution. […] Single channel data were analyzed using Ana software developed by Dr Michael Pusch (Istituto di Biofisica, Genova, Italy; http://users.ge.ibf.cnr.it/pusch/programs-mik.htm). […]

In turn, `O=C(OCCN1CCN(c2cccc(C(F)(F)F)c2)CC1)c1ccccc1Nc1ccnc2cc(C(F)(F)F)ccc12` [antrafenine] gave an IC50 of 12.3 ± 3.9 nM. Molecule `CC(C)c1c(C(=O)Nc2ccccc2)c(-c2ccccc2)c(-c2ccc(F)cc2)n1CC[C@@H](O)C[C@@H](O)CC(=O)O` [atorvastatin] gave an IC50 of 1200 ± 300 nM.

Molecule `Cc1c(O)cccc1C(=O)N[C@@H](CSc1ccccc1)[C@H](O)CN1C[C@H]2CCCC[C@H]2C[C@H]1C(=O)NC(C)(C)C` [nelfinavir mesylate] had an IC50 of 8 ± 1.1 nM.

The record behind these values is PMC12682947, “Identification of New KCNT1‐Epilepsy Drugs by In Silico, Cell, and Drosophila Modeling” (Annals of Neurology, 2025).
